This is an account of results in ChEMBL document CHEMBL5352475, “Design, synthesis, and biological evaluation of novel glutaminase 1 allosteric inhibitors with an alkane chain tail group” (Eur J Med Chem, 2023).

≈ marks a conversion by molar mass, not a printed value.

Data set [1] deals with T1, Glutaminase kidney isoform, mitochondrial (Homo sapiens, UniProt O94925).
T1 sequence (O94925 whole entry): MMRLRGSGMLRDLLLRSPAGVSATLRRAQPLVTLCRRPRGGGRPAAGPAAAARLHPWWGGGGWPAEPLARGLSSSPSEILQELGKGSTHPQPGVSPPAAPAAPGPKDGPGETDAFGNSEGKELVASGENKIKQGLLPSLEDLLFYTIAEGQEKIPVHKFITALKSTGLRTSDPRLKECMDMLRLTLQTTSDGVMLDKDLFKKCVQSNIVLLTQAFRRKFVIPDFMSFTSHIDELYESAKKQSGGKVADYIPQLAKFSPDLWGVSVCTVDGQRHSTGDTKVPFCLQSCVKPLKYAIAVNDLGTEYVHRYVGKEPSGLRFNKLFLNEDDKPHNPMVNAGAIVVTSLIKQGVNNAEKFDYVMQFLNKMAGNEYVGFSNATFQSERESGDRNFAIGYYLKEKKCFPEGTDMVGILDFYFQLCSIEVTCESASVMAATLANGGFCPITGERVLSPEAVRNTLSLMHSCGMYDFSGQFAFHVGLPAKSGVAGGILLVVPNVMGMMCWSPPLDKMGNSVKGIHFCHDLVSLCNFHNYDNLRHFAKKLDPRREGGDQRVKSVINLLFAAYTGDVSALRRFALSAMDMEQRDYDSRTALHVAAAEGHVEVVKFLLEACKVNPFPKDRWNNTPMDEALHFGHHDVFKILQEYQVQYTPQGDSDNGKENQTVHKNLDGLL
In words: Inhibition of GLS1 (unknown origin) preincubated for 10 mins followed by glutamine addition measured after 60 mins.

The subject of data set [2] is HCT-116. In words: cells. To be noted: Homo sapiens, HCT-116, 72 h.
Description: Antiproliferative activity against human HCT-116 cells incubated for 72 hrs by MTT assay
Data set [3] in a line: Metabolic stability in human liver microsomes assessed as half life by LC-MS/MS analysis. The class given is ADME, Microsome.
Data set [4] in a line: Metabolic stability in human liver microsomes assessed as clearance measured upto 120 mins by LC-MS/MS analysis. In kind it is ADME, Microsome. As to conditions: read-out: CLH.
Data set [5] in a line: Intrinsic aqueous solubility of the compound in PBS buffer at pH 7.4 measured after 72 hrs by LC-MS analysis. In kind it is physicochemical. As to conditions: read-out: Intrinsic_solubility.
Data set [6] concerns the target T2, Glutaminase kidney isoform, mitochondrial (Homo sapiens) (UniProt O94925).
T2 sequence (whole entry): T1 sequence (O94925 whole entry)
Description: Stabilization of GLS1 (unknown origin) assessed as change in melting temperature by protein thermal assay

The subject of data set [7] is HCT-116. In words: Antitumor activity against human HCT-116 cells xenografted in BALB/c nude mouse assessed as tumor growth inhibition at 100 mg/kg, ip for 20 days relative to control. In kind it is functional. As to conditions: Mus musculus, HCT-116, 480 h, time 20 day, read-out: TGI. (In general: In xenograft studies the graft and the host belong to different species.)

One may read the IC50 as the concentration at which inhibition is half-maximal. High values mean weaker potency, low ones greater potency. `CCCCC(=O)Nc1nnc(CCCCc2ccc(NC(=O)Cc3cccc(O)c3)nn2)s1`: the IC50 in data set [1] came out at 170 nM; with HCT-116 [2] it was 6820 nM.
For `C=CCCCOc1cccc(CC(=O)Nc2ccc(CCCCc3nnc(NC(=O)CCC=C)s3)nn2)c1` the same measures were 79 nM and 920 nM.
Usually half-life stands for the time in which the quantity being followed falls by half. With `CCCCOc1cccc(CC(=O)Nc2ccc(CCCCc3nnc(NC(=O)CCCC)s3)nn2)c1`, in data set [3], the half-life was found to be 54.6 min. The microsomal CLint in data set [4] is 63.5 µL/min/mg. Further, the half-maximal inhibitory concentration (IC50) was found to be 27 nM in data set [1] and 380 nM in the data set with HCT-116 [2].
`CCCCCOc1cccc(CC(=O)Nc2ccc(CCCCc3nnc(NC(=O)C4CC4)s3)nn2)c1`: in data set [5], the solubility at 72 h stood at 0.52 µg/mL (≈ 0.995 µM). The IC50 in data set [1] was found to be 36 nM; in the data set on HCT-116 [2], 4030 nM.
Turning to `CCCCOc1cccc(CC(=O)Nc2ccc(CCCCc3nnc(NC(=O)C4CC4)s3)nn2)c1`, in data set [5], the solubility at 72 h is 0.71 µg/mL (≈ 1.4 µM). Further, the IC50 in data set [1] was determined as 160 nM; with HCT-116 [2], 2640 nM.
Turning to `C=CCCOc1cccc(CC(=O)Nc2nnc(CCCCc3ccc(NC(=O)CCC=C)nn3)s2)c1`, the figures for the half-maximal inhibitory concentration (IC50) (in data set [1]; in the data set with HCT-116 [2]) were 240 nM and 1520 nM, respectively.
For `C=CCCOc1cccc(CC(=O)Nc2ccc(CCCCc3nnc(NC(=O)CC=C)s3)nn2)c1`, the figures for the IC50 (in data set [1]; in the data set on HCT-116 [2]) were 110 nM and 1600 nM, respectively.
For `C#CCCC(=O)Nc1nnc(CCCCc2ccc(NC(=O)Cc3cccc(OC(=O)CCC#C)c3)nn2)s1` the same measures were 390 nM and 5260 nM.
The ΔTm is the change in melting temperature against a reference sample. On to `C=CCCCCOc1cccc(CC(=O)Nc2ccc(CCCCc3nnc(NC(=O)CCC=C)s3)nn2)c1`, for which the half-life in data set [3] is 25.1 min. In addition, in data set [5], the solubility at 72 h is 3.6 µg/mL (≈ 6.56 µM). The ΔTm in data set [6] came to 13.9 °C. Moreover, the microsomal CLint in data set [4] worked out at 138 µL/min/mg. The figures for the IC50 (in data set [1]; with HCT-116 [2]) were 25.1 nM and 310 nM, respectively.
For the molecule `CCCCCNc1cccc(CC(=O)Nc2ccc(CCCCc3nnc(NC(=O)CCCC)s3)nn2)c1`, the IC50 in data set [1] is above 20000 nM.
For `C#CCCC(=O)Nc1nnc(CCCCc2ccc(NC(=O)Cc3cccc(OCCC=C)c3)nn2)s1`, the half-inhibitory concentration (IC50) in data set [1] came to 290 nM; with HCT-116 [2] it was 2250 nM.
The corresponding values for `CCCCCCCCOc1cccc(CC(=O)Nc2ccc(CCCCc3nnc(NC(=O)CCCC)s3)nn2)c1` are 17 nM and 210 nM.
The corresponding values for `CCCCC(=O)Nc1nnc(CCCCc2ccc(NC(=O)Cc3cccc(OCC)c3)nn2)s1` are 220 nM and 8540 nM.
In the case of `CCCCC(=O)Nc1nnc(CCCCc2ccc(NC(=O)Cc3cccc(N)c3)nn2)s1`, the IC50 in data set [1] was 520 nM.
As to `C=CCCCOc1cccc(CC(=O)Nc2nnc(CCCCc3ccc(NC(=O)CCC=C)nn3)s2)c1`, the IC50 in data set [1] was determined as 36 nM; with HCT-116 [2], 3700 nM.
For `C=CCCCCOc1cccc(CC(=O)Nc2ccc(CCCCc3nnc(N)s3)nn2)c1` the same measures were 280 nM and 1090 nM.
In the case of `CCCCCCOc1cccc(CC(=O)Nc2ccc(CCCCc3nnc(NC(=O)CCCC)s3)nn2)c1`, the half-life in data set [3] stood at 26 min. Further, in data set [4], the microsomal CLint was determined as 134 µL/min/mg. Also, the IC50 is 19 nM in data set [1] and 380 nM in the data set with HCT-116 [2].
With `CCCCCCOc1cccc(CC(=O)Nc2ccc(CCCCc3nnc(NC(=O)C4CC(F)(F)C4)s3)nn2)c1`, the solubility at 72 h in data set [5] is 4.1 µg/mL (≈ 6.99 µM). In addition, the IC50 in data set [1] came out at 24 nM; in the data set with HCT-116 [2], 1230 nM.
As for `C=CCCCOc1cccc(CC(=O)Nc2nnc(CCCCc3ccc(NC(=O)CC=C)nn3)s2)c1`, the values for the IC50 (in data set [1]; in the data set with HCT-116 [2]) were above 5000 nM and 29400 nM, respectively.
`C=CCCCCOc1cccc(CC(=O)Nc2ccc(CCCCc3nnc(NC(=O)C4CC(F)(F)C4)s3)nn2)c1`: the half-life in data set [3] was 87.8 min. The microsomal CLint in data set [4] worked out at 39.5 µL/min/mg. Besides, the IC50 was found to be 32 nM in data set [1] and 1680 nM with HCT-116 [2].
Turning to `CCCCC(=O)Nc1nnc(CCCCc2ccc(NC(=O)Cc3cccc(OCCC)c3)nn2)s1`, the IC50 in data set [1] was determined as 130 nM; in the data set with HCT-116 [2] it was 820 nM.
The corresponding values for `C=CCCCCOc1cccc(CC(=O)Nc2nnc(CCCCc3ccc(NC(=O)CCC=C)nn3)s2)c1` are 34 nM and 660 nM.
The corresponding values for `CCCCOc1cccc(CC(=O)Nc2ccc(OC3CC4CCC(C3)N4c3nnc(NC(=O)CCCC)s3)nn2)c1` (stereo not given) are above 20000 nM and 16900 nM.
For `CCCCOc1cccc(CC(=O)Nc2ccc(CCCCc3nnc(NC(=O)C4CC(F)(F)C4)s3)nn2)c1`, the solubility at 72 h in data set [5] is 6.23 µg/mL (≈ 11.2 µM). For the same molecule, the IC50 in data set [1] is 68 nM; in the data set with HCT-116 [2], 1860 nM.
With `CCCCCCCOc1cccc(CC(=O)Nc2ccc(CCCCc3nnc(NC(=O)CCCC)s3)nn2)c1`, the figures for the IC50 (in data set [1]; with HCT-116 [2]) were 17 nM and 1960 nM, respectively.
For the molecule `C=CCCOc1cccc(CC(=O)Nc2ccc(N3CCC(Nc4nnc(NC(=O)CCC=C)s4)CC3)nn2)c1`, in data set [3], the half-life came to 68.6 min. For the same molecule, the microsomal CLint in data set [4] turned out to be 50.2 µL/min/mg. For the same molecule, the IC50 in data set [1] worked out at 19 nM; in the data set with HCT-116 [2], 430 nM.
Consider `C=CCCOc1cccc(CC(=O)Nc2ccc(CCCCc3nnc(NC(=O)CCC=C)s3)nn2)c1`, for which the IC50 in data set [1] came to 87 nM; in the data set with HCT-116 [2], 1370 nM.
For `C#CCCC(=O)Nc1nnc(CCCCc2ccc(NC(=O)Cc3cccc(O)c3)nn2)s1` the same measures were 580 nM and 3440 nM.
With `C=CCCC(=O)Nc1nnc(CCCCc2ccc(NC(=O)Cc3cccc(OC(=O)CCC=C)c3)nn2)s1`, the IC50 in data set [1] came out at 140 nM; in the data set on HCT-116 [2] it was 7900 nM.
In data set [1], `CCCCCCNc1cccc(CC(=O)Nc2ccc(CCCCc3nnc(NC(=O)CCCC)s3)nn2)c1` registered an IC50 above 20000 nM.
For `CCCCC(=O)Nc1nnc(CCCCc2ccc(NC(=O)Cc3cccc(OC)c3)nn2)s1`, the results for the IC50 (in data set [1]; in the data set on HCT-116 [2]) were 190 nM and 2460 nM, respectively.
On to `CCCCNc1cccc(CC(=O)Nc2ccc(CCCCc3nnc(NC(=O)CCCC)s3)nn2)c1`, for which the IC50 in data set [1] is above 20000 nM.
In the case of `C#CCOc1cccc(CC(=O)Nc2ccc(CCCCc3nnc(NC(=O)CCCC)s3)nn2)c1`, the IC50 in data set [1] was 1050 nM; in the data set on HCT-116 [2] it was above 10000 nM.
Take `O=C(Cc1ccccc1)Nc1nnc(CCSCCc2nnc(NC(=O)Cc3ccccc3)s2)s1`: the inhibition in vivo at 100 mg/kg in the data set with HCT-116 [7] was found to be 31.3%.
With `C=CCCC(=O)Nc1nnc(CCCCc2ccc(NC(=O)Cc3cccc(O)c3)nn2)s1`, the IC50 in data set [1] was 530 nM; with HCT-116 [2], 2630 nM.
For `C=CCCOc1cccc(CC(=O)Nc2nnc(CCCCc3ccc(NC(=O)CC=C)nn3)s2)c1` the same measures were above 5000 nM and 24900 nM.
For `CCCCCOc1cccc(CC(=O)Nc2ccc(CCCCc3nnc(NC(=O)CCCC)s3)nn2)c1` the same measures were 24 nM and 2180 nM.
